Data from BindingDB's records for doi:10.1016/j.bioorg.2015.05.007 (Silesian University of Technology, 2015).
pIC50: −log10 of the molar value.

Molecular target: T1, Chitin synthase 3 (Saccharomyces cerevisiae (strain ATCC 204508 / S288c), UniProt P29465)
T1 sequence (P29465 whole entry): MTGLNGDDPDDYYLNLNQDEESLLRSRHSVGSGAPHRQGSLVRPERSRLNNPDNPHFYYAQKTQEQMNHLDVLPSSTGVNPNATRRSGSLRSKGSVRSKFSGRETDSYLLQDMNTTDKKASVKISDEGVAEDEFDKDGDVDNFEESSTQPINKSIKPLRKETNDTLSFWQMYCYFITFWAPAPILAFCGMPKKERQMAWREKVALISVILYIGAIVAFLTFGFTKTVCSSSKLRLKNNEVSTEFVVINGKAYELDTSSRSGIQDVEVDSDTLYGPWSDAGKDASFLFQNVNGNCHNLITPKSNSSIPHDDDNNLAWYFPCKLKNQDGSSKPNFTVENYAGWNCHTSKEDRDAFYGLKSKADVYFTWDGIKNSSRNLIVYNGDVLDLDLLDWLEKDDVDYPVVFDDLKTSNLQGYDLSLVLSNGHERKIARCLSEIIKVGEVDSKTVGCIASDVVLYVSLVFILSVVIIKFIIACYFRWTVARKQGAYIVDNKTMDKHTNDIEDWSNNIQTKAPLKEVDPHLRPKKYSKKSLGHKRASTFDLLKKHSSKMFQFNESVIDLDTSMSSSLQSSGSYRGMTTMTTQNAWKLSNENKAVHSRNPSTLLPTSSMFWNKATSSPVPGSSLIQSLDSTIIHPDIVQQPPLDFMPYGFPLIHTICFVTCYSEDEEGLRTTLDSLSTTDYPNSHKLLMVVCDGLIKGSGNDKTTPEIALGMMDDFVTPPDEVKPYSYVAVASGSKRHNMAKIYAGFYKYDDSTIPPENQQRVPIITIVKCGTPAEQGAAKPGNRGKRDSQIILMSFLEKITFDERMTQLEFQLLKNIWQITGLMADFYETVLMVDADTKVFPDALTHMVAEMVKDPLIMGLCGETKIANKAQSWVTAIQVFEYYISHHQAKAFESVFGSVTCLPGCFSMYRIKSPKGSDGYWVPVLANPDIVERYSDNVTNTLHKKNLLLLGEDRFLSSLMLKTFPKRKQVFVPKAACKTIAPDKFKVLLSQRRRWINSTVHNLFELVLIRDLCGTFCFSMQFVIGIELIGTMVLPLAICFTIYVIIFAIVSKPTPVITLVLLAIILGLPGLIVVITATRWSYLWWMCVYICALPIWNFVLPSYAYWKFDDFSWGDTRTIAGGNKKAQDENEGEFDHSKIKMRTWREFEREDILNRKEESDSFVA
Test: Chitin Synthase Assays
Conditions: pH 7.5; 25 °C
Procedure: Assays were performed in 96-wells microtiter plate with flat bottom. To each well of the plate, 100 µL of WGA solution was added at 50 µg/mL. After incubation at room temperature for at least 16 h the WGA solution was removed by triple washing with distill water. Wells were then blocked by adding 300 µL of BSA blocking buffer (20 mg/mL, 50 mM Tris-HCl, pH 7.5) and incubated for 3 h at room temperature. Microtiter plates were stored until use at -20 °C in blocking buffer. Before usage plates were thawed at 25 °C and thoroughly emptied. The standard reaction mixture in total volume 100 µL contains: UDP-GlcNAc (2.0 mM), GlcNAc (40 mM), MgCl2 (5.0 mM) and digitonin (0.1% w/v) dissolved in pH 7.5 Tris-HCl buffer (50 mM) containing test compounds at a range of concentrations from 0 mM (control) to 3.0 mM. The enzymatic reactions were started by the addition of 0.2 mg/mL solution of trypsin (1-10 µL) and membrane preparation (5-20 µL). Usually four different concentrations of trypsin were te

pIC50 | Structure (SMILES)
3.10 | COC(=O)CCC(=O)NC[C@H]1O[C@@H](n2ccc(=O)[nH]c2=O)[C@@H](O)C1O (some centres not stated) [5'-(N-succinyl)-5'-amino-5'-deoxyuridine methyl ester (7)]
2.52 | O=C(CCC(=O)NCC(=O)NC[C@H]1O[C@@H](n2ccc(=O)[nH]c2=O)[C@@H](O)C1O)NCC(=O)NC[C@H]1O[C@@H](n2ccc(=O)[nH]c2=O)[C@@H](O)C1O (some centres not stated) [Dimer 15 (15)]
